From patent US12702689B2, “Anti-inflammatory compositions, and uses thereof” (P.L. THOMAS & CO., INC., priority 2022, dated 2026)

Key:
[1] = test system: IL-5, IL-4, IL-13, IL-10 in BAL fluid; experiment: BAL fluid cytokine markers, multiplex flow-cytometry based assay; type: in vivo, BALB/cJ female mice; settings: OVA+AKBA mice, 100 mg/kg AKBA
Excerpt: Allergic airway phenotype was induced by using an ovalbumin (OVA, hen egg) sensitization and challenge model as previously described with modifications [Beigelman, A. et al. Azithromycin attenuates airway inflammation in a noninfectious mouse model of allergic asthma. Chest 136, 498-506 (2009)]. Briefly (FIG. 1), two groups of mice (OVA control and OVA+AKBA) were sensitized with intraperitoneal ovalbumin plus alum on days 0 and 7, challenged for 3 days (day 14 to day 17) via nebulized OVA at 1% in PBS for 30 mins, and harvested 48 hr after final challenge. Supplementation groups (OVA+AKBA) were given 100 mg/kg of water soluble AKBA (pH 7) (PLT Health Solutions, Morristown, NJ, US) in autoclaved mouse water, via gavage, every other day for 10 days and then every day for the remainder of the experiment (9 days). OVA control and naïve mouse continued to receive normal autoclaved mouse water. Mice were weighted at the beginning and end of the experiment. Experiments involving AKBA were conducted twice, with the first group containing 5 mice per group and the second containing 15 mice per group (5 per group for naive). Experiment procedures were identical, and results were pooled for n=20 (n=5 for naive). Animal protocol 102063-0522 was approved by the University of Connecticut Health IACUC board. Experiments were repeated, as stated above, with oral gavages of B. pseudolongum culture in place of AKBA supplementation. Groups were designated as OVA control (n=10), OVA+B. pseudolongum (n=10) and naïve (n=5). OVA+B. pseudolongum groups were given 10^8 CFU B. pseudolongum in culture medium via gavage, every other day for 10 days and then every day for the remainder of the experiment (9 days). Multiple inflammatory mediators were analyzed in the cell-free supernatant of BAL fluid using a multiplex flow-cytometry based assay according to manufacturer's recommendations (BioLegend, San Diego, CA, US). Volume of cell free fluid was concentrated using a 50K centrifugal filter spun at 3000 g for 10-15 minutes. Samples were run on a ZE5 Cell Analyzer (Bio-Rad, Hercules, CA, US) and sample processing was conducting using software provided from the kit's manufacturer (BioLegend, San Diego, CA, US). Serum specific ovalbumin IgE levels was detected by using an ELISA kit with a sensitivity of 3.8 ng/mL per manufacturer's protocol (Cayman Chemical Company, Ann Arbor, MI, US).

OVA-specific IgE = experiment: Serum OVA-specific IgE, anti-OVA ELISA; type: in vivo, BALB/cJ female mice; settings: OVA+AKBA mice, 100 mg/kg AKBA; at sacrifice; p=0.3223 vs OVA control
gut microbiome = experiment: Gut microbiome profiling of fecal pellets by 16S rRNA sequencing; type: in vivo, BALB/cJ female mice
Excerpt: Allergic airway phenotype was induced by using an ovalbumin (OVA, hen egg) sensitization and challenge model as previously described with modifications [Beigelman, A. et al. Azithromycin attenuates airway inflammation in a noninfectious mouse model of allergic asthma. Chest 136, 498-506 (2009)]. Briefly (FIG. 1), two groups of mice (OVA control and OVA+AKBA) were sensitized with intraperitoneal ovalbumin plus alum on days 0 and 7, challenged for 3 days (day 14 to day 17) via nebulized OVA at 1% in PBS for 30 mins, and harvested 48 hr after final challenge. Supplementation groups (OVA+AKBA) were given 100 mg/kg of water soluble AKBA (pH 7) (PLT Health Solutions, Morristown, NJ, US) in autoclaved mouse water, via gavage, every other day for 10 days and then every day for the remainder of the experiment (9 days). OVA control and naïve mouse continued to receive normal autoclaved mouse water. Mice were weighted at the beginning and end of the experiment. Experiments involving AKBA were conducted twice, with the first group containing 5 mice per group and the second containing 15 mice per group (5 per group for naive). Experiment procedures were identical, and results were pooled for n=20 (n=5 for naive). Animal protocol 102063-0522 was approved by the University of Connecticut Health IACUC board. Experiments were repeated, as stated above, with oral gavages of B. pseudolongum culture in place of AKBA supplementation. Groups were designated as OVA control (n=10), OVA+B. pseudolongum (n=10) and naïve (n=5). OVA+B. pseudolongum groups were given 10^8 CFU B. pseudolongum in culture medium via gavage, every other day for 10 days and then every day for the remainder of the experiment (9 days). Fresh fecal pellets were collected upon defecation and stored in sterile RNA-/DNA-/RNAse-/DNAse-free microcentrifuge tubes at the beginning and end of experiment (FIG. 1). Collected pellets were placed at −80° C. for storage following collection. DNA from pellets were extracted using the PowerSoil DNA Isolation Kit (Qiagen, Hilden, Germany) according to the manufacturer's protocol. Amplicon library preparation and V4 region of 16S rRNA gene sequencing were performed at Illumina HiSeq 4000 (Illumina, CA, US) platform. Raw 16S rRNA sequences (150-bp paired-end reads) were initially processed by BaseSpace software (Illumina, CA, US). One mismatch in primer and zero mismatch in barcodes were applied to sample deconvolution. Deconvoluted sequences were further processed using the DADA2 data processing pipeline with default parameters to obtain amplicon sequence variants (ASVs). Final taxonomic assignment was conducted using RDP-classifier (v2.11) with 0.5 confidence value as cut-off. Reads with <0.5 confidence of classification was “unclassified” at a given taxonomical level. ASV counts were converted to relative abundance and agglomerated at the phylum and genus levels using the Phyloseq R package to visualize the microbiome composition in a stacked bar plot. […] Sample reads were rarefied to 10,000 reads to account for uneven sampling depth. Alpha diversity was determined with the richness and Shannon diversity metrics at the ASV level. Wilcoxon sum rank test was performed to compare alpha diversity of stool microbiome between asthma control and AKBA treated mice at day 0 and day 19. Beta diversity was visualized by principal component analysis (PCA). DESeq2, with an adjusted p value<0.05, was used for the differential taxa analysis. All plots were created with “ggplot2” and all analyses were conducted in RStudio version 4.1.0.

[2] = test system: gut microbiota including Akkermansia; Bifidobacteria; settings: in vitro; cited from earlier work
[3] = AKBA treated mice, baseline vs endpoint, DESeq p<0.05

What does the source list for `CC(=O)O[C@@H]1CC[C@@]2(C)[C@@H](CC[C@]3(C)[C@@H]2C(=O)C=C2[C@@H]4[C@@H](C)[C@H](C)CC[C@]4(C)CC[C@]23C)[C@@]1(C)C(=O)O` [AKBA, 3-O-acetyl-11-keto-b-boswellic acid]?
IL-10 in BAL fluid ([1]; not significant vs OVA control): 19.77 ± 12.19 ng/mL; IL-13 in BAL fluid ([1]; not significant vs OVA control): 4.15 ± 3.15 ng/mL; IL-5 in BAL fluid ([1]; p=0.0079 vs OVA control): 31.39 ± 17.71 ng/mL; IL-4 in BAL fluid ([1]; p=0.0229 vs OVA control): 9.30 ± 6.67 ng/mL; serum OVA-specific IgE (OVA-specific IgE): 1275.98 ± 503.22 ng/mL; change in Hyphomicrobium, Solirubrobacter and Steroidobacter (gut microbiome; [3]): decreases; change in Lactiplantibacillus, Lacticaseibacillus and Turicibacter (gut microbiome; [3]): increases; overall richness and Shannon diversity of gut microbiome, baseline to endpoint (gut microbiome; OVA+AKBA group, 100 mg/kg AKBA): maintained; Bifidobacterium increase, fold change (gut microbiome; OVA+AKBA group, baseline to endpoint, Wilcoxon p=0.07 vs OVA control): 15.94±15.84 fold; the 24 genera decreased in OVA control mice (Table 1): decreased in treated group (gut microbiome; OVA+AKBA group, baseline vs end point): None; relative abundances of Actinobacteria phyla and Bifidobacterium genus vs OVA control mice (gut microbiome; OVA+AKBA mice): significantly higher; effect on certain gut microbiota including Akkermansia [2]: selectively inhibited; feeding effect on Bifidobacteria [2]: no direct feeding effect
